Experiments:
Type in all cases: in vivo
[1] = tested on: Cabbage Looper [Trichoplusia ni (Hubner)]; assay: Cabbage looper insecticidal test; details: second-instar larvae, percent in solution; 3-5 days
Procedure: (§1) The compounds in Tables 1 and 2 above were tested for insecticidal activity using the following testing procedures. LC50 values, based on the results of these tests and calculated according to dosage-mortality curves, are expressed in Table 3.
Cabbage Looper [Trichoplusia ni (Hubner)]:
Test compounds were diluted in a 50-50 acetone-water solution. Cotyledons of hyzini squash (Calabacita abobrinha), approximately 1×1.5 inches, were immersed in the test solutions for 2-3 seconds and placed on a wire screen to dry. The dried leaves were placed in petri dishes containing a moistened piece of filter paper and infested with 5 second-instar cabbage looper larvae. The dishes were placed in a high humidity chamber. Mortality of the larvae was recorded 3-5 days later. Test concentrations ranged from 0.1% downward. The LC-50 value is expressed below in Table 3 under the heading "CL" in terms of percent of the test compound in solution.

[2] = tested on: Tobacco Budworm [Heliothis virescens (Fabricius)] eggs; assay: Tobacco budworm egg test; details: 2-day old eggs, percent in solution
Procedure: as §1
Tobacco Budworm [Heliothis virescens (Fabricius)]:
(b). Eggs: Paper towel patches of 2-day old eggs of the tobacco budworm were dipped in acetone solutions of the test compound and placed in petri dishes containing a portion of larval rearing medium. Treated eggs were maintained at 78° F. and mortality was recorded after all control eggs had hatched and the young larvae were feeding on the media. Test concentrations ranged from 0.1% downward. The LC-50 value is expressed below in Table 3 under the heading "TBW-E" in terms of percent of the test compound in the solution.

[3] = tested on: Housefly [Musca domestica]; assay: Housefly insecticidal test; details: μg per 25 female flies; mortality after 48 hours
Procedure: as §1
Housefly [Musca domestica]:
Test compounds were diluted in acetone and aliquots pipetted onto the bottom of aluminum dishes. To ensure even spreading of the chemical on the bottom of the dishes, 1 ml of acetone containing 0.01% peanut oil was also added to each dish. After all solvents had evaporated, the dishes were placed in circular cardboard cages containing 25 female houseflies, 1-2 days old. The cages were covered on the bottom with cellophane and on the top with tulle netting, and each contained a sugar-water saturated cotton plug for maintenance of the flies. Mortality was recorded after 48 hours. Test levels ranged from 100 μg/25 female houseflies downward. The LC-50 value is expressed below in Table 3 under the heading "HF", in terms of μg of the test compound per 25 female flies.

SMILES	LC50, CL [1] [%]	LC50, TBW, E (TBW-E) [2] [%]	LC50, HF [3] [µg]
CC(C)(C)C(=Nc1cccc(Cl)c1)OCc1cccc(Oc2ccccc2)c1 [Compound 12]	0.008	> 0.1	> 100
CC1CC1C(=Nc1ccc(Cl)cc1)OCc1cccc(Oc2ccccc2)c1 (stereo not shown) [Compound 15]	0.025	> 0.1	> 100
CC(C)C(=Nc1cc(Cl)c(Cl)cc1Cl)OCc1cccc(Oc2ccccc2)c1 [Compound 18]	0.008	0.09	> 100
CC(C)C(=Nc1c(Cl)cc(Cl)cc1Cl)OCc1cccc(Oc2ccccc2)c1 [Compound 19]	< 0.1	> 0.1	> 100
COC(C)C(=Nc1ccc(Cl)cc1)OCc1cccc(Oc2ccccc2)c1 (stereo not shown) [Compound 22]	0.004	0.08	15
Clc1cccc(N=C(OCc2cccc(Oc3ccccc3)c2)C2CC2)c1 [Compound 24]	0.005	0.1	25
CCC(C)C(=Nc1ccc(Cl)cc1)OCc1cccc(Oc2ccccc2)c1 (stereo not shown) [Compound 26]	0.007	> 0.1	> 100
CC(Cl)C(=Nc1ccc(Cl)c(Cl)c1)OCc1cccc(Oc2ccccc2)c1 (stereo not shown) [Compound 27]	0.04	> 0.1	> 100
CCC(=Nc1cccc(Cl)c1Cl)OCc1cccc(Oc2ccccc2)c1 [Compound 28]	0.009	> 0.1	> 100
CCC(=Nc1ccc(Cl)c(Cl)c1)OCc1cccc(Oc2ccccc2)c1 [Compound 36]	0.024	> 0.1	20
CCCC(=Nc1ccc(Cl)c(Cl)c1)OCc1cccc(Oc2ccccc2)c1 [Compound 38]	0.006	0.05	33
CCC(C)C(=Nc1ccc(Cl)c(Cl)c1)OCc1cccc(Oc2ccccc2)c1 (stereo not shown) [Compound 39]	0.0023	> 0.1	> 100
CC(C)C(=Nc1ccc(Cl)c(Cl)c1)OCc1cccc(Oc2cccc(F)c2)c1 [Compound 40]	0.0025	0.08	36
CC(C)(C)C(=Nc1ccc(F)cc1)OCc1cccc(Oc2ccccc2)c1 [Compound 48]	0.03	> 0.05	> 100
CC(C)C(=Nc1cc(F)ccc1F)OCc1cccc(Oc2ccccc2)c1 [Compound 56]	0.01	> 0.05	91
CC(C)C(=Nc1cc(F)c(F)cc1F)OCc1cccc(Oc2ccccc2)c1 [Compound 58]	0.002	0.06	16
CCC(=Nc1ccc(F)cc1F)OCc1cccc(Oc2ccccc2)c1 [Compound 59]	0.02	> 0.1	25
COc1cc(N=C(OCc2cccc(Oc3ccccc3)c2)C(C)C)cc(C(F)(F)F)c1 [Compound 76]	0.002	0.05	20
CC(C)C(=Nc1cc(C(F)(F)F)cc(C(F)(F)F)c1)OCc1cccc(Oc2ccccc2)c1 [Compound 78]	0.0025	> 0.1	> 100
CC(C)C(=Nc1ccc(Br)cc1F)OCc1cccc(Oc2ccccc2)c1 [Compound 79]	0.003	0.05	6
CC(C)C(=Nc1cc(C(F)(F)F)ccc1F)OCc1cccc(Oc2ccccc2)c1 [Compound 84]	0.006	0.1	93
FC(F)(F)c1cccc(N=C(OCc2cccc(Oc3ccccc3)c2)C2CC2)c1 [Compound 86]	0.013	> 0.1	65
Cc1cc(N=C(OCc2cccc(Oc3ccccc3)c2)C(C)C)ccc1F [Compound 87]	0.004	0.03	5

SMILES	LC50, CL [1] [%]	LC50, TBW, E (TBW-E) [2] [%]	LC50, HF [3] [µg]
Cc1ccc(Cl)c(N=C(OCc2cccc(Oc3ccccc3)c2)C(C)C)c1 [Compound 93]	0.005	> 0.1	64
Cc1ccc(N=C(OCc2cccc(Oc3ccccc3)c2)C(C)C)c(Cl)c1 [Compound 94]	0.0045	0.075	44
COc1cc(N=C(OCc2cccc(Oc3ccccc3)c2)C(C)C)c(OC)cc1Cl [Compound 99]	0.016	> 0.1	> 100
COc1ccc(OC)c(N=C(OCc2cccc(Oc3ccccc3)c2)C(C)C)c1Cl [Compound 100]	0.05	> 0.1	100
CCSc1ccc(N=C(OCc2cccc(Oc3ccccc3)c2)C(C)C)cc1Cl [Compound 103]	0.015	> 0.1	> 100
CCOC(=O)c1ccc(N=C(OCc2cccc(Oc3ccccc3)c2)C(C)C)cc1Cl [Compound 104]	0.004	> 0.1	> 100
CC(C)(C)C(=Nc1ccc(Cl)c([N+](=O)[O-])c1)OCc1cccc(Oc2ccccc2)c1 [Compound 105]	0.018	> 0.1	> 100
CC(C)(C)C(=Nc1ccc(Br)c(Cl)c1)OCc1cccc(Oc2ccccc2)c1 [Compound 106]	0.014	> 0.1	> 100
Cc1ccc(N=C(OCc2cccc(Oc3ccccc3)c2)C(C)(C)C)cc1Cl [Compound 107]	0.007	> 0.1	> 100
Cc1cc(Cl)ccc1N=C(OCc1cccc(Oc2ccccc2)c1)C(C)(C)C [Compound 109]	0.002	> 0.1	> 100
COc1ccc(N=C(OCc2cccc(Oc3ccc(F)cc3)c2)C(C)C)cc1Cl [Compound 110]	0.007	0.04	26
CC(C)(Cl)C(=Nc1ccc(Cl)c2ccccc12)OCc1cccc(Oc2ccccc2)c1 [Compound 111]	0.1	> 0.1	> 100
CC(C)C(=Nc1cccc(Oc2ccccn2)c1)OCc1cccc(Oc2ccccc2)c1 [Compound 114]	< 0.1	–	92
CCC(=Nc1ccc(F)c(Cl)c1)OCc1cccc(Oc2ccc(F)cc2)c1 [Compound 115]	0.0012	0.075	10
CC(Br)C(=Nc1ccc(F)c(Cl)c1)OCc1cccc(Oc2ccccc2)c1 (stereo not shown) [Compound 118]	0.0013	> 0.1	18
CCCCC(=Nc1ccc(F)c(Cl)c1)OCc1cccc(Oc2ccccc2)c1 [Compound 121]	0.1	> 0.1	> 100
CCCC(=Nc1ccc(F)c(Cl)c1)OCc1cccc(Oc2ccccc2)c1 [Compound 123]	0.012	> 0.1	> 100
CC(C)C(=Nc1cccc(C#N)c1)OCc1cccc(Oc2ccccc2)c1 [Compound 126]	0.08	> 0.1	> 100
Cc1cc(N=C(OCc2cccc(Oc3ccccc3)c2)C(C)C)ccc1Br [Compound 127]	0.01	0.04	58
CC(C)C(=Nc1c(Br)cc(F)cc1Br)OCc1cccc(Oc2ccccc2)c1 [Compound 130]	0.005	> 0.1	> 100
FC(F)(F)c1ccc(Oc2ccc(COC(=Nc3ccc(Cl)cc3)C(Cl)Cl)cc2)nc1 [Compound 453]	0.1	–	> 100
CC(C)C(=Nc1ccc(F)c(Cl)c1)OC(F)c1cccc(Oc2ccc(F)cc2)c1 (stereo not shown) [Compound 502]	–	–	80
CC(C)C(=Nc1ccc(OC(F)(F)F)cc1)OCc1cccc(Cc2ccccc2)c1 [Compound 542]	> 0.01	–	> 100

Source: patent US5070210A, “Novel ketenimines as intermediates for insecticides” (ICI Americas Inc., priority 1990, dated 1991)
